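In this assay, cells in 96-well plates receive the compound at five concentrations for 48 hours. Endpoints are linearly interpolated between the surrounding concentrations. The concentration for 50% growth inhibition is given as GI50. At the TGI there is no net growth.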
Assays:
Assay in all cases: growth of human tumour cells (NCI), 48 h
[1] = test system: SK-MEL-28 melanoma
[2] = test system: MDA-MB-435
[3] = test system: CCRF-CEM leukemia
[4] = test system: IGROV1 ovarian
[5] = test system: HOP-62 NSCLC
[6] = test system: NCI-H460 lung
[7] = test system: T-47D breast
[8] = test system: BT-549 breast
[9] = test system: OVCAR-5 ovarian
[10] = test system: COLO 205 colon
[11] = test system: SW-620 colon
[12] = test system: HOP-92 NSCLC
[13] = test system: UACC-257 melanoma
[14] = test system: MDA-MB-468 breast
[15] = test system: MALME-3M melanoma
[16] = test system: MCF7 breast
[17] = test system: OVCAR-3 ovarian
[18] = test system: SK-MEL-5 melanoma
[19] = test system: SNB-19 CNS
[20] = test system: HS 578T breast
[21] = test system: RXF 393 renal
[22] = test system: DU-145 prostate
[23] = test system: LOX IMVI melanoma
[24] = test system: SK-MEL-2 melanoma
[25] = test system: SF-295 CNS
[26] = test system: PC-3 prostate
[27] = test system: NCI-H522 lung
[28] = test system: SN12C renal
[29] = test system: A549 NSCLC
[30] = test system: CAKI-1 renal
[31] = test system: 786-0 renal
[32] = test system: UO-31 renal
[33] = test system: SK-OV-3 ovarian
[34] = test system: OVCAR-4 ovarian
[35] = test system: A498 renal
[36] = test system: SF-539 CNS
[37] = test system: HCT-116 colon
[38] = test system: HCT-15 colon
[39] = test system: EKVX NSCLC
[40] = test system: M14 melanoma
[41] = test system: U251 CNS
[42] = test system: HL-60(TB) leukemia
[43] = test system: RPMI-8226 leukemia
[44] = test system: ACHN renal
[45] = test system: UACC-62 melanoma
[46] = test system: HCC-2998 colon
[47] = test system: MDA-MB-231 breast
[48] = test system: NCI-H226 lung
[49] = test system: SR leukemia
[50] = test system: SF-268 CNS
[51] = test system: SNB-75 CNS
[52] = test system: K-562 leukemia
[53] = test system: OVCAR-8 ovarian
[54] = test system: HT29 colon
[55] = test system: TK-10 renal
[56] = test system: NCI-H23 lung
[57] = test system: MOLT-4 leukemia
[58] = test system: KM12 colon

Compound `COc1cc(C2C(C(=O)OCc3ccccc3)=C(C)Nc3nc4ccccc4n32)cc(OC)c1OC` (stereo unspecified) has a GI50 [1] of 5.46 µM, a TGI [1] of 59 µM and a GI50 [2] of 2260 nM. The TGI [2] was 6.25 µM, the GI50 [3] was 7.01 µM and the TGI [3] was > 100 µM. For the same compound, the GI50 [4] was 4.42 µM, the TGI [4] was 30.5 µM and the GI50 [5] was 2750 nM. It also gave a TGI [5] of 9.15 µM, a GI50 [6] of 3.87 µM and a TGI [6] of 19.6 µM. It also gave a GI50 [7] of 3.15 µM, a TGI [7] of 14.5 µM and a GI50 [8] of 4.09 µM. The TGI [8] was 18.1 µM, the GI50 [9] was 7.88 µM and the TGI [9] was 38.3 µM. For the same compound, the GI50 [10] was 12.5 µM, the TGI [10] was > 100 µM and the GI50 [11] was 6.23 µM. The TGI [11] was > 100 µM, the GI50 [12] was 2120 nM and the TGI [12] was 6.61 µM. The GI50 [13] was 11.2 µM, the TGI [13] was 66.3 µM and the GI50 [14] was 2110 nM. For the same compound, the TGI [14] was 5.83 µM, the GI50 [15] was 1740 nM and the TGI [15] was 5.71 µM. It also gave a GI50 [16] of 3.56 µM, a TGI [16] of 17.8 µM and a GI50 [17] of 2670 nM. For the same compound, the TGI [17] was 7.56 µM, the GI50 [18] was 4.41 µM and the TGI [18] was 19.5 µM. It also gave a GI50 [19] of 3.65 µM, a TGI [19] of 15.8 µM and a GI50 [20] of 2250 nM. It also gave a TGI [20] of 7.65 µM, a GI50 [21] of 1400 nM and a TGI [21] of 4.71 µM. The GI50 [22] was 7.06 µM, the TGI [22] was 55.8 µM and the GI50 [23] was 3.43 µM. The TGI [23] was 12.9 µM, the GI50 [24] was 2610 nM and the TGI [24] was 7.76 µM. The GI50 [25] was 3.35 µM, the TGI [25] was 13.2 µM and the GI50 [26] was 6.63 µM. For the same compound, the TGI [26] was > 100 µM, the GI50 [27] was 2640 nM and the TGI [27] was 10.3 µM. For the same compound, the GI50 [28] was 3.3 µM, the TGI [28] was 21.2 µM and the GI50 [29] was 3.28 µM. It also gave a TGI [29] of 11.4 µM, a GI50 [30] of 2450 nM and a TGI [30] of 11.4 µM. The GI50 [31] was 1800 nM, the TGI [31] was 3.56 µM and the GI50 [32] was 2110 nM. It also gave a TGI [32] of 5.27 µM, a GI50 [33] of 2460 nM and a TGI [33] of 5.86 µM. It also gave a GI50 [34] of 2410 nM, a TGI [34] of 7.87 µM and a GI50 [35] of 1880 nM. The TGI [35] was 4.37 µM, the GI50 [36] was 1980 nM and the TGI [36] was 4.37 µM. For the same compound, the GI50 [37] was 3.25 µM, the TGI [37] was 10.5 µM and the GI50 [38] was 5.91 µM. For the same compound, the TGI [38] was > 100 µM, the GI50 [39] was 10.8 µM and the TGI [39] was 56.2 µM. It also gave a GI50 [40] of 6.01 µM, a TGI [40] of 71 µM and a GI50 [41] of 3.25 µM. The TGI [41] was 11.3 µM, the GI50 [42] was 7.02 µM and the TGI [42] was 76.7 µM. The GI50 [43] was 6.96 µM, the TGI [43] was > 100 µM and the GI50 [44] was 2970 nM. It also gave a TGI [44] of 9.01 µM, a GI50 [45] of 2150 nM and a TGI [45] of 8.07 µM. For the same compound, the GI50 [46] was 14.4 µM, the TGI [46] was > 100 µM and the GI50 [47] was 1970 nM. The TGI [47] was 4.68 µM, the GI50 [48] was 2190 nM and the TGI [48] was 6.81 µM. The GI50 [49] was 3.93 µM, the TGI [49] was > 100 µM and the GI50 [50] was 3.22 µM. It also gave a TGI [50] of 19 µM, a GI50 [51] of 1000 nM and a TGI [51] of 3.22 µM. For the same compound, the GI50 [52] was 3.38 µM, the TGI [52] was > 100 µM and the GI50 [53] was 3.73 µM. The TGI [53] was 14.4 µM, the GI50 [54] was 4.35 µM and the TGI [54] was 22.3 µM. For the same compound, the GI50 [55] was 2150 nM, the TGI [55] was 5.4 µM and the GI50 [56] was 7 µM. The TGI [56] was 29 µM, the GI50 [57] was 11.3 µM and the TGI [57] was > 100 µM. The GI50 [58] was 3.75 µM and the TGI [58] was 27.4 µM.
